Patent US4855284A, “Calcium and magnesium complexes of phytohemagglutinin-polyheteroglycans, their preparation and pharmaceutical formulations” (Intex Pharmazeutische Produkte AG, priority 1985, dated 1989)

Key:
[1] = test system: edema induced by carrageen in the rat paw; experiment: carrageen rat paw test (Winter), antiinflammatory action; assay type: in vivo, rat (female, CFY strain); settings: 10 mg/kg oral
[2] = test system: ulcers and mucosal edema in the stomach; experiment: alcohol ulcer test (Robert), cytoprotective action; assay type: in vivo, Wistar rats; settings: oral 500 mg/kg, 10 animals
Protocol: The cytoprotective action was tested by the alcohol ulcer test of A. J. E. Robert and coworkers, Am. J. Physiol. […] Liver Physiol. […] Usually, Wistar rats in groups with 10 animals in each are kept without food for 1 day and then treated once through a stomach tube with 1 to 2 ml of anhydrous ethanol which contains 0.5% hydrochloric acid.
After the death of the animals, the length of the resulting ulcers and the size of the resulting mucosal edema in the stomach are measured and compared with control animals not treated with the product. A basic aluminum complex of sucrose polysulfate (sucralfate, see below) was used for comparison.

Compound | Inhibition in % (of swelling) [1] [%] | Inhibition in %, Edema [2] [%] | Inhibition in %, Ulcer [2] [%]
COc1ccc2c(c1)c(CC(=O)O)c(C)n2C(=O)c1ccc(Cl)cc1 [Indomethacin] | 46 | – | –
Sucralfate | – | 79 | 56
